Laboratory results reported in US9918964B2, “Reducing platelet activation, aggregation and platelet-stimulated thrombosis or blood coagulation by reducing mitochondrial respiration” (priority 2010, dated 2018).
≈ marks a conversion by molar mass, not a printed value. Where “and” joins values, the source holds several entries; their conditions need not be identical. Equal entries are not always repeated. Where two headings read alike, the source gives them in different places.

Assays:
[1] = tested on: mitochondria isolated from liver of tilapia (Sarotheridon mossambica); type: biochemical
platelets in whole blood = experiment: Platelet function testing with the Hemostasis Mechanism Analyzer (HMA): clumping, sticking, clotting in whole blood; type: cell-based, human; conditions: for activity at 670 µg/mL / activity at 3300 µg/mL / activity at 6700 µg/mL / activity at 5000 µg/mL / activity at 11700 µg/mL / activity at 23300 µg/mL / activity at 700 µg/mL / activity at 1300 µg/mL / activity at 2700 µg/mL / activity at 5300 µg/mL / activity at 10700 µg/mL: Homo sapiens, Platelet; for activity at 5000 µg/mL: Dosage (mg/ml) 5; for activity at 11700 µg/mL: Dosage (mg/ml) 11.7; for activity at 23300 µg/mL: Dosage (mg/ml) 23.3; for activity at 700 µg/mL: Dosage (mg/ml) 0.7; for activity at 1300 µg/mL: Dosage (mg/ml) 1.3; for activity at 2700 µg/mL: Dosage (mg/ml) 2.7; for activity at 5300 µg/mL: Dosage (mg/ml) 5.3; for activity at 10700 µg/mL: Dosage (mg/ml) 10.7
[2] = tested on: mitochondria isolated from liver of tilapia (Sarotheridon mossambica); type: biochemical; remark: listed apart in the source
mitochondria = experiment: Hydrogen peroxide levels on mitochondrial inhibition (unpublished results)
From the text: Various experimental models of Parkinson's disease and other maladies have implicated mitochondrial dysfunction and excessive Reactive Oxygen Species (ROS) as possible contributors. Fortunately it is routine in the art to screen mitochondrial inhibitors or indeed any platelet inhibitor for hydrogen peroxide production in vitro, to select active agents that are suitable for long term administration as long as the production of hydrogen peroxide is not excessive.

[3] = in vitro whole blood assay, clumping, sticking, clotting
[4] = read-out: % clump time increase
[5] = read-out: % stick time increase
[6] = Dosage (mg/ml) 3.3, 0 dosage = 100, read-out: % clot time increase
[7] = Dosage (mg/ml) 3.3, 0 dosage = 100, read-out: % clump time increase
[8] = Dosage (mg/ml) 3.3, 0 dosage = 100, read-out: % stick time increase
[9] = 0 dosage = 100, read-out: % clot time increase
[10] = 0 dosage = 100, read-out: % clump time increase
[11] = 0 dosage = 100, read-out: % stick time increase
[12] = Dosage (mg/ml) 6.7, 0 dosage = 100, read-out: % clot time increase
[13] = Dosage (mg/ml) 6.7, 0 dosage = 100, read-out: % clump time increase
[14] = Dosage (mg/ml) 6.7, 0 dosage = 100, read-out: % stick time increase

## Cc1ncsc1CCOC(=O)C[P+](c1ccccc1)(c1ccccc1)c1ccccc1.[Br-] [Compound 49, [2-[2-(4-methylthiazol-5-yl)ethoxy]-2-oxo-ethyl]-triphenyl-phosphonium bromide]
[1]
  Reversible?: irreversible and No
Platelets in whole blood
  activity in the platelet assays (active agent or inactive): significantly reduced platelet activity or aggregation
[2]
  IC50 (mg/ml) mitochondria inhibition: 8.8 mg/mL

## Brc1nn[nH]c1Br [Compound 48, 4,5-dibromo-1H-triazole]
[1]
  Reversible?: reversible and Yes
Platelets in whole blood; [3]
  activity in the platelet assays (active agent or inactive): met the criteria for active agents
[2]
  IC50 (mg/ml) mitochondria inhibition: 30 mg/mL (≈ 132 mM)

## Thiazole [Compound 47]
[1]
  Reversible?: reversible and Yes
Platelets in whole blood
  activity in the platelet assays (active agent or inactive): inactive
[2]
  IC50 (mg/ml) mitochondria inhibition: 21.3 mg/mL

## tetrazole [Compound 93]
[1]; reversible if respiration rate after removing the inhibitor returned to greater than 75% of its value in the absence of inhibitor
  Reversible?: reversible and Yes
Platelets in whole blood
  % clot time increase: 150% and 128% and 114%
  % clump time increase: 211% and 194% and 116%
  % stick time increase: 193% and 173% and 116%
mitochondria
  hydrogen peroxide levels: elevated levels of hydrogen peroxide
[2]
  IC50 (mg/ml) mitochondria inhibition: 31.5 mg/mL

## Cc1nnn[nH]1 [Compound 76, 5-methyl-1H-tetrazole]
Platelets in whole blood; read-out: % clot time increase
  activity at 670 µg/mL: 91%
  activity at 3300 µg/mL: 120%
  activity at 6700 µg/mL: 301%
Platelets in whole blood; [4]
  activity at 670 µg/mL: 129%
  activity at 3300 µg/mL: 209%
Platelets in whole blood; [5]
  activity at 670 µg/mL: 125%
  activity at 3300 µg/mL: 217%
  activity at 6700 µg/mL: 983%
[2]
  IC50 (mg/ml) mitochondria inhibition: 12.6 mg/mL (≈ 150 mM)

## CSc1nnn[nH]1 [Compound 83, 5-methylsulfanyl-1H-tetrazole]
[1]
  Reversible?: reversible and Yes
Platelets in whole blood; [6]
  activity at 3300 µg/mL: 127%
Platelets in whole blood; [7]
  activity at 3300 µg/mL: 167%
Platelets in whole blood; [8]
  activity at 3300 µg/mL: 157%
Platelets in whole blood; [9]
  activity at 5000 µg/mL: 191%
Platelets in whole blood; [10]
  activity at 5000 µg/mL: 584%
Platelets in whole blood; [11]
  activity at 5000 µg/mL: 512%
Platelets in whole blood; [12]
  activity at 6700 µg/mL: 297%
[2]
  IC50 (mg/ml) mitochondria inhibition: 14.5 mg/mL (≈ 125 mM)

## Sc1ncc[nH]1 [Compound 84, 1H-imidazole-2-thiol]
Platelets in whole blood; [12]
  activity at 6700 µg/mL: 99%
Platelets in whole blood; [13]
  activity at 6700 µg/mL: 113%
Platelets in whole blood; [14]
  activity at 6700 µg/mL: 105%
Platelets in whole blood; [9]
  activity at 11700 µg/mL: 110%
  activity at 23300 µg/mL: 128%
Platelets in whole blood; [10]
  activity at 11700 µg/mL: 121%
  activity at 23300 µg/mL: 149%
Platelets in whole blood; [11]
  activity at 11700 µg/mL: 111%
  activity at 23300 µg/mL: 142%
Platelets in whole blood; [3]
  activity in the platelet assays (active agent or inactive): met the criteria for active agents
[2]
  IC50 (mg/ml) mitochondria inhibition: 17.3 mg/mL (≈ 173 mM)

## O=C(O)Cc1nnn[nH]1 [Compound 82, 2-(1H-tetrazol-5-yl)acetic acid]
Platelets in whole blood; [6]
  activity at 3300 µg/mL: 137%
Platelets in whole blood; [7]
  activity at 3300 µg/mL: 240%
Platelets in whole blood; [8]
  activity at 3300 µg/mL: 222%
Platelets in whole blood; [9]
  activity at 5000 µg/mL: 217%
Platelets in whole blood; [10]
  activity at 5000 µg/mL: 755%
Platelets in whole blood; [11]
  activity at 5000 µg/mL: 601%
[2]
  IC50 (mg/ml) mitochondria inhibition: 11.8 mg/mL (≈ 92.1 mM)

## Cc1ncsc1C [Compound 92, 4,5-dimethylthiazole]
Platelets in whole blood; [9]
  activity at 700 µg/mL: 100%
  activity at 11700 µg/mL: 126%
  activity at 23300 µg/mL: 162%
Platelets in whole blood; [10]
  activity at 700 µg/mL: 112%
  activity at 11700 µg/mL: 224%
  activity at 23300 µg/mL: 717%
Platelets in whole blood; [11]
  activity at 700 µg/mL: 118%
  activity at 11700 µg/mL: 211%
  activity at 23300 µg/mL: 546%
Platelets in whole blood; [6]
  activity at 3300 µg/mL: 101%
Platelets in whole blood; [7]
  activity at 3300 µg/mL: 176%
Platelets in whole blood; [8]
  activity at 3300 µg/mL: 171%
Platelets in whole blood; [12]
  activity at 6700 µg/mL: 106%
Platelets in whole blood; [13]
  activity at 6700 µg/mL: 195%
Platelets in whole blood; [14]
  activity at 6700 µg/mL: 179%
[2]
  IC50 (mg/ml) mitochondria inhibition: 50.9 mg/mL (≈ 450 mM)

## C[N+](C)(C)[C@@H](Cc1c[nH]c(=S)[nH]1)C(=O)[O-] [Compound 50, (2S)-3-(2-thioxo-1,3-dihydroimidazol-4-yl)-2-(trimethylammonio) propanoate]
Platelets in whole blood; [3]
  activity in the platelet assays (active agent or inactive): inactive
[2]
  IC50 (mg/ml) mitochondria inhibition: 86 mg/mL (≈ 375 mM)

## Nc1nnn[nH]1 [Compound 34, 1H-tetrazol-5-amine]
[1]
  Reversible?: reversible and Yes
[2]
  IC50 (mg/ml) mitochondria inhibition: 8.5 mg/mL (≈ 99.9 mM)

## C[N+](C)(C)[C@H](Cc1c[nH]c(=S)[nH]1)C(=O)[O-] [Compound 51, (2R)-3-(2-thioxo-1,3-dihydroimidazol-4-yl)-2-(trimethylammonio) propanoate]
Platelets in whole blood; [3]
  activity in the platelet assays (active agent or inactive): inactive
[2]
  IC50 (mg/ml) mitochondria inhibition: 93.8 mg/mL (≈ 409 mM)

## Cc1cscn1 [Compound 75, 4-methylthiazole]
Platelets in whole blood; [9]
  activity at 700 µg/mL: 103%
  activity at 1300 µg/mL: 106%
  activity at 2700 µg/mL: 108%
  activity at 5300 µg/mL: 114%
  activity at 10700 µg/mL: 122%
Platelets in whole blood; [10]
  activity at 700 µg/mL: 115%
  activity at 1300 µg/mL: 109%
  activity at 2700 µg/mL: 126%
  activity at 5300 µg/mL: 136%
  activity at 10700 µg/mL: 164%
Platelets in whole blood; [11]
  activity at 700 µg/mL: 106%
  activity at 1300 µg/mL: 102%
  activity at 2700 µg/mL: 123%
  activity at 5300 µg/mL: 132%
  activity at 10700 µg/mL: 155%
[2]
  IC50 (mg/ml) mitochondria inhibition: 40.6 mg/mL (≈ 409 mM)

## Cc1cncs1 [Compound 94, 5-methylthiazole]
[1]
  Reversible?: reversible and Yes
[2]
  IC50 (mg/ml) mitochondria inhibition: 23.5 mg/mL (≈ 237 mM)
